In PubChem BioAssay (NCI):
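Five compound concentrations were applied to cells in 96-well plates for 48 hours; endpoints were derived by simple linear interpolation of the resulting dose-response curve. Definition used: TGI = concentration required for complete inhibition of growth.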

Assays:
Experiment in all cases: growth of human tumour cells (NCI), 48 h
A498 renal = system: A498 renal
A549 NSCLC = system: A549 NSCLC
ACHN renal = system: ACHN renal
BT-549 breast = system: BT-549 breast
CAKI-1 renal = system: CAKI-1 renal
CCRF-CEM leukemia = system: CCRF-CEM leukemia
COLO 205 colon = system: COLO 205 colon
DU-145 prostate = system: DU-145 prostate
EKVX NSCLC = system: EKVX NSCLC
HCT-116 colon = system: HCT-116 colon
HCT-15 colon = system: HCT-15 colon
HL-60(TB) leukemia = system: HL-60(TB) leukemia
HOP-62 NSCLC = system: HOP-62 NSCLC
HOP-92 NSCLC = system: HOP-92 NSCLC
HS 578T breast = system: HS 578T breast
HT29 colon = system: HT29 colon
IGROV1 ovarian = system: IGROV1 ovarian
K-562 leukemia = system: K-562 leukemia
KM12 colon = system: KM12 colon
LOX IMVI melanoma = system: LOX IMVI melanoma
M14 melanoma = system: M14 melanoma
MALME-3M melanoma = system: MALME-3M melanoma
MCF7 breast = system: MCF7 breast
MDA-MB-231 breast = system: MDA-MB-231 breast
MDA-MB-435 = system: MDA-MB-435
MDA-N = system: MDA-N
MOLT-4 leukemia = system: MOLT-4 leukemia
NCI-H226 lung = system: NCI-H226 lung
NCI-H23 lung = system: NCI-H23 lung
NCI-H460 lung = system: NCI-H460 lung
NCI-H522 lung = system: NCI-H522 lung
NCI/ADR-RES ovarian = system: NCI/ADR-RES ovarian
OVCAR-3 ovarian = system: OVCAR-3 ovarian
OVCAR-4 ovarian = system: OVCAR-4 ovarian
OVCAR-5 ovarian = system: OVCAR-5 ovarian
OVCAR-8 ovarian = system: OVCAR-8 ovarian
PC-3 prostate = system: PC-3 prostate
RPMI-8226 leukemia = system: RPMI-8226 leukemia
RXF 393 renal = system: RXF 393 renal
SF-268 CNS = system: SF-268 CNS
SF-295 CNS = system: SF-295 CNS
SF-539 CNS = system: SF-539 CNS
SK-MEL-2 melanoma = system: SK-MEL-2 melanoma
SK-MEL-28 melanoma = system: SK-MEL-28 melanoma
SK-MEL-5 melanoma = system: SK-MEL-5 melanoma
SK-OV-3 ovarian = system: SK-OV-3 ovarian
SN12C renal = system: SN12C renal
SNB-19 CNS = system: SNB-19 CNS
SNB-75 CNS = system: SNB-75 CNS
SR leukemia = system: SR leukemia
SW-620 colon = system: SW-620 colon
T-47D breast = system: T-47D breast
TK-10 renal = system: TK-10 renal
U251 CNS = system: U251 CNS
UACC-257 melanoma = system: UACC-257 melanoma
UACC-62 melanoma = system: UACC-62 melanoma
UO-31 renal = system: UO-31 renal
786-0 renal = system: 786-0 renal
HCC-2998 colon = system: HCC-2998 colon

## CC(=O)c1nccc2c1c(C)nc1ccccc12
A498 renal
  TGI: > 100 µM
A549 NSCLC
  TGI: > 100 µM
ACHN renal
  TGI: > 100 µM
BT-549 breast
  TGI: > 100 µM
CAKI-1 renal
  TGI: > 100 µM
CCRF-CEM leukemia
  TGI: 68.6 µM
COLO 205 colon
  TGI: > 100 µM
DU-145 prostate
  TGI: > 100 µM
EKVX NSCLC
  TGI: > 100 µM
HCT-116 colon
  TGI: > 100 µM
HCT-15 colon
  TGI: > 100 µM
HL-60(TB) leukemia
  TGI: > 100 µM
HOP-62 NSCLC
  TGI: > 100 µM
HOP-92 NSCLC
  TGI: > 100 µM
HS 578T breast
  TGI: 96.3 µM
HT29 colon
  TGI: > 100 µM
IGROV1 ovarian
  TGI: > 100 µM
K-562 leukemia
  TGI: > 100 µM
KM12 colon
  TGI: > 100 µM
LOX IMVI melanoma
  TGI: > 100 µM
M14 melanoma
  TGI: > 100 µM
MALME-3M melanoma
  TGI: > 100 µM
MCF7 breast
  TGI: > 100 µM
MDA-MB-231 breast
  TGI: > 100 µM
MDA-MB-435
  TGI: > 100 µM
MDA-N
  TGI: > 100 µM
MOLT-4 leukemia
  TGI: > 100 µM
NCI-H226 lung
  TGI: 67.9 µM
NCI-H23 lung
  TGI: > 100 µM
NCI-H460 lung
  TGI: > 100 µM
NCI-H522 lung
  TGI: > 100 µM
NCI/ADR-RES ovarian
  TGI: > 100 µM
OVCAR-3 ovarian
  TGI: > 100 µM
OVCAR-4 ovarian
  TGI: > 100 µM
OVCAR-5 ovarian
  TGI: > 100 µM
OVCAR-8 ovarian
  TGI: > 100 µM
PC-3 prostate
  TGI: > 100 µM
RPMI-8226 leukemia
  TGI: 61 µM
RXF 393 renal
  TGI: > 100 µM
SF-268 CNS
  TGI: > 100 µM
SF-295 CNS
  TGI: > 100 µM
SF-539 CNS
  TGI: > 100 µM
SK-MEL-2 melanoma
  TGI: > 100 µM
SK-MEL-28 melanoma
  TGI: > 100 µM
SK-MEL-5 melanoma
  TGI: > 100 µM
SK-OV-3 ovarian
  TGI: > 100 µM
SN12C renal
  TGI: > 100 µM
SNB-19 CNS
  TGI: > 100 µM
SNB-75 CNS
  TGI: > 100 µM
SR leukemia
  TGI: > 100 µM
SW-620 colon
  TGI: > 100 µM
T-47D breast
  TGI: > 100 µM
TK-10 renal
  TGI: > 100 µM
U251 CNS
  TGI: > 100 µM
UACC-257 melanoma
  TGI: > 100 µM
UACC-62 melanoma
  TGI: > 100 µM
UO-31 renal
  TGI: > 100 µM

## COc1ccc(C[C@H]2COC(=O)[C@@H]2Cc2cc(OC)c(OC)c(OC)c2)cc1OC
786-0 renal
  TGI: > 100 µM
A549 NSCLC
  TGI: > 100 µM
ACHN renal
  TGI: > 100 µM
BT-549 breast
  TGI: > 100 µM
CAKI-1 renal
  TGI: > 100 µM
CCRF-CEM leukemia
  TGI: > 100 µM
COLO 205 colon
  TGI: > 100 µM
DU-145 prostate
  TGI: > 100 µM
EKVX NSCLC
  TGI: > 100 µM
HCC-2998 colon
  TGI: > 100 µM
HCT-116 colon
  TGI: > 100 µM
HCT-15 colon
  TGI: > 100 µM
HL-60(TB) leukemia
  TGI: > 100 µM
HOP-62 NSCLC
  TGI: > 100 µM
HOP-92 NSCLC
  TGI: > 100 µM
HS 578T breast
  TGI: > 100 µM
HT29 colon
  TGI: > 100 µM
IGROV1 ovarian
  TGI: > 100 µM
K-562 leukemia
  TGI: > 100 µM
KM12 colon
  TGI: > 100 µM
LOX IMVI melanoma
  TGI: > 100 µM
M14 melanoma
  TGI: > 100 µM
MALME-3M melanoma
  TGI: > 100 µM
MCF7 breast
  TGI: > 100 µM
MDA-MB-231 breast
  TGI: > 100 µM
MDA-MB-435
  TGI: > 100 µM
MDA-N
  TGI: > 100 µM
MOLT-4 leukemia
  TGI: > 100 µM
NCI-H226 lung
  TGI: > 100 µM
NCI-H23 lung
  TGI: > 100 µM
NCI-H460 lung
  TGI: > 100 µM
NCI-H522 lung
  TGI: > 100 µM
NCI/ADR-RES ovarian
  TGI: > 100 µM
OVCAR-3 ovarian
  TGI: > 100 µM
OVCAR-4 ovarian
  TGI: > 100 µM
OVCAR-5 ovarian
  TGI: > 100 µM
OVCAR-8 ovarian
  TGI: > 100 µM
PC-3 prostate
  TGI: > 100 µM
RPMI-8226 leukemia
  TGI: > 100 µM
RXF 393 renal
  TGI: > 100 µM
SF-268 CNS
  TGI: > 100 µM
SF-295 CNS
  TGI: > 100 µM
SF-539 CNS
  TGI: > 100 µM
SK-MEL-2 melanoma
  TGI: > 100 µM
SK-MEL-28 melanoma
  TGI: > 100 µM
SK-MEL-5 melanoma
  TGI: > 74.4 µM
SK-OV-3 ovarian
  TGI: > 100 µM
SN12C renal
  TGI: > 100 µM
SNB-19 CNS
  TGI: > 100 µM
SNB-75 CNS
  TGI: > 100 µM
SR leukemia
  TGI: > 100 µM
SW-620 colon
  TGI: > 100 µM
T-47D breast
  TGI: > 65.2 µM
TK-10 renal
  TGI: > 100 µM
U251 CNS
  TGI: > 100 µM
UACC-257 melanoma
  TGI: > 100 µM
UACC-62 melanoma
  TGI: > 100 µM
UO-31 renal
  TGI: > 100 µM
